Experimental data reported in patent US20050282743A1, “Molecular interactions in cells” (Arbor Vita Corporation, priority 2001, published 2005).
Ends that are not written are not given here. Peptide text beside a SMILES is read from it. * marks the point of attachment. Biotin = O=C1N[C@H]2[C@H](CS[C@H]2CCCCC(=O)*)N1

Tests used:
Type in all cases: binding
[1] = molecular target: T1, PDZ-domain polypeptide (GST/PDZ fusion protein) (Homo sapiens, UniProt Q9Y3R0); assay: Apparent affinity (Kd) by titration of PL peptide in the G assay; settings: Peptide Optimal Conc (Kd by titration of the PL peptide), PDZ GRIP1, PDZ Domain 6
T1 construct: made in house; host or cells: E. coli (DH5alpha, BL21 or JM109)
Method in brief: (§1)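 A fixed concentration of GST/PDZ fusion protein, 5 ug/ml by default, was mixed in solution with increasing labeled PL peptide (e.g. 0.1 uM-1 mM). Reaction times ranged from 10 minutes to 2 days at 4-37° C. Complexes were separated from free peptide and detected via the label as in the G assay, apparent affinity coming from the saturating concentration.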

[2] = molecular target: T2, PDZ protein (GST-PDZ fusion) (Homo sapiens, UniProt Q9Y566); assay: G' assay (10 uM PL peptide), results of TABLE 7 and TABLE 12; settings: PDZ SHANK1, PDZ Domain 1
T2 construct: made in house; host or cells: E. coli (DH5alpha, BL21 or JM109)
Method in brief: (§2)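 Binding classes derive from A450 nm of bound biotin-tagged PL peptide. A score of 5 needs A450 above 4 in more than two repeats.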

[3] = molecular target: T3, PDZ-domain polypeptide (GST/PDZ fusion protein) (Homo sapiens, UniProt Q9UDY2); assay: Apparent affinity (Kd) by titration of PL peptide in the G assay; settings: Peptide Optimal Conc (Kd by titration of the PL peptide), PDZ ZO-2, PDZ Domain 1
T3 construct: made in house; host or cells: E. coli (DH5alpha, BL21 or JM109)
Method in brief: as §1

[4] = molecular target: T4, PDZ-domain polypeptide (GST/PDZ fusion protein) (Homo sapiens, UniProt P57105); assay: as above; settings: PDZ Outer Membrane, PDZ Domain 1; Protein Optimal Conc 5
T4 construct: made in house; host or cells: E. coli (DH5alpha, BL21 or JM109)
Method in brief: as §1

[5] = molecular target: T5, PDZ protein (GST-PDZ fusion) (Homo sapiens, UniProt Q86UR5); assay: G' assay (10 uM PL peptide), results of TABLE 7 and TABLE 12; settings: PDZ KIAA0340, PDZ Domain 1
T5 construct: made in house; host or cells: E. coli (DH5alpha, BL21 or JM109)
Method in brief: as §2

[6] = molecular target: T6, PDZ protein (GST-PDZ fusion) (Homo sapiens, UniProt Q9H190); assay: as above
T6 construct: made in house; host or cells: E. coli (DH5alpha, BL21 or JM109)
T6 sequence (Q9H190 1-292): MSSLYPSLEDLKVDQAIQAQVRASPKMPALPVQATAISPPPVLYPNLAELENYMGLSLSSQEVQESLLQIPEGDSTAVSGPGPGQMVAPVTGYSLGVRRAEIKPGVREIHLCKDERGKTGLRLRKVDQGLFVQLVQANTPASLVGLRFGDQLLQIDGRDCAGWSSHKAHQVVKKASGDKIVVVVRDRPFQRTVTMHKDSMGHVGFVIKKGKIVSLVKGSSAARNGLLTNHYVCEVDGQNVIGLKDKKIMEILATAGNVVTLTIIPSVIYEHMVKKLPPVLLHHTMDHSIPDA
Method in brief: as §2

[7] = molecular target: T7, PDZ-domain polypeptide (GST/PDZ fusion protein) (Homo sapiens, UniProt O00560); assay: Apparent affinity (Kd) by titration of PL peptide in the G assay; settings: PDZ hSyntenin, PDZ Domain 1; titration of the PL peptide; read-out: Peptide Optimal Conc (Kd, dissociation constant)
T7 construct: made in house; host or cells: E. coli (DH5alpha, BL21 or JM109)
Method in brief: as §1

[8] = molecular target: T8, PDZ-domain polypeptide (GST/PDZ fusion protein) (Homo sapiens, UniProt Q96HC4); assay: as above; settings: PDZ LIM Protein, PDZ Domain 1; titration of the PL peptide; read-out: Peptide Optimal Conc (Kd, dissociation constant)
T8 construct: made in house; host or cells: E. coli (DH5alpha, BL21 or JM109)
Method in brief: as §1

[9] = molecular target: T9, PDZ protein (GST-PDZ fusion) (Homo sapiens, UniProt Q8N3R9); assay: G' assay (10 uM PL peptide), results of TABLE 7 and TABLE 12; settings: PDZ FLJ 12615 (PALS-1), PDZ Domain 1
T9 construct: made in house; host or cells: E. coli (DH5alpha, BL21 or JM109)
Method in brief: as §2

[10] = molecular target: T10, PDZ-domain polypeptide (GST/PDZ fusion protein) (Homo sapiens, UniProt Q9P202); assay: Apparent affinity (Kd) by titration of PL peptide in the G assay; settings: PDZ KIAA1526, PDZ Domain 1; read-out: Peptide Optimal Conc (Kd by titration of the PL peptide)
T10 construct: made in house; host or cells: E. coli (DH5alpha, BL21 or JM109)
Method in brief: as §1

T9 sequence (Q8N3R9 whole entry, the tested form may be a part): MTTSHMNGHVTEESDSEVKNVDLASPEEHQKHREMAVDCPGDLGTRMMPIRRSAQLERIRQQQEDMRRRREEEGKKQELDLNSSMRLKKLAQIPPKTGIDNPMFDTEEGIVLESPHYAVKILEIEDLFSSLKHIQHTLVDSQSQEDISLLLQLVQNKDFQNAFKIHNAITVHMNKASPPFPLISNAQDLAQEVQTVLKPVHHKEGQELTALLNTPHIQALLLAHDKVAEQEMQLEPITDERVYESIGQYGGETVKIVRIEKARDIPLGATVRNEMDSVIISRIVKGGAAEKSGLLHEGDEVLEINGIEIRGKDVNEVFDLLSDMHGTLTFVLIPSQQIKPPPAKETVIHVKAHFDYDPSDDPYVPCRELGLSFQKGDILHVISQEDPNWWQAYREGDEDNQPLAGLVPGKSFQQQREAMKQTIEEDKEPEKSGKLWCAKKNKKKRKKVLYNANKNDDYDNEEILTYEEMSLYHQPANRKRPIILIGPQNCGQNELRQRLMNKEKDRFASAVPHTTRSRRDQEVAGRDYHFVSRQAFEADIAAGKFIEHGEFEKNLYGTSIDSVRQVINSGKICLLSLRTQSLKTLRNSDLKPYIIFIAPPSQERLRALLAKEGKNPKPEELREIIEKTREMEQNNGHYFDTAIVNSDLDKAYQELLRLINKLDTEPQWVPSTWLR
T4 sequence (P57105 whole entry, the tested form may be a part): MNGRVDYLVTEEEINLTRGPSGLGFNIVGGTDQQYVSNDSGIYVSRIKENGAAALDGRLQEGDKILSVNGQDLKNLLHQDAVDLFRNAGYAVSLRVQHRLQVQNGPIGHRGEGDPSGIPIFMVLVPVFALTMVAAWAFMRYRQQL
T3 sequence (Q9UDY2 whole entry, the tested form may be a part): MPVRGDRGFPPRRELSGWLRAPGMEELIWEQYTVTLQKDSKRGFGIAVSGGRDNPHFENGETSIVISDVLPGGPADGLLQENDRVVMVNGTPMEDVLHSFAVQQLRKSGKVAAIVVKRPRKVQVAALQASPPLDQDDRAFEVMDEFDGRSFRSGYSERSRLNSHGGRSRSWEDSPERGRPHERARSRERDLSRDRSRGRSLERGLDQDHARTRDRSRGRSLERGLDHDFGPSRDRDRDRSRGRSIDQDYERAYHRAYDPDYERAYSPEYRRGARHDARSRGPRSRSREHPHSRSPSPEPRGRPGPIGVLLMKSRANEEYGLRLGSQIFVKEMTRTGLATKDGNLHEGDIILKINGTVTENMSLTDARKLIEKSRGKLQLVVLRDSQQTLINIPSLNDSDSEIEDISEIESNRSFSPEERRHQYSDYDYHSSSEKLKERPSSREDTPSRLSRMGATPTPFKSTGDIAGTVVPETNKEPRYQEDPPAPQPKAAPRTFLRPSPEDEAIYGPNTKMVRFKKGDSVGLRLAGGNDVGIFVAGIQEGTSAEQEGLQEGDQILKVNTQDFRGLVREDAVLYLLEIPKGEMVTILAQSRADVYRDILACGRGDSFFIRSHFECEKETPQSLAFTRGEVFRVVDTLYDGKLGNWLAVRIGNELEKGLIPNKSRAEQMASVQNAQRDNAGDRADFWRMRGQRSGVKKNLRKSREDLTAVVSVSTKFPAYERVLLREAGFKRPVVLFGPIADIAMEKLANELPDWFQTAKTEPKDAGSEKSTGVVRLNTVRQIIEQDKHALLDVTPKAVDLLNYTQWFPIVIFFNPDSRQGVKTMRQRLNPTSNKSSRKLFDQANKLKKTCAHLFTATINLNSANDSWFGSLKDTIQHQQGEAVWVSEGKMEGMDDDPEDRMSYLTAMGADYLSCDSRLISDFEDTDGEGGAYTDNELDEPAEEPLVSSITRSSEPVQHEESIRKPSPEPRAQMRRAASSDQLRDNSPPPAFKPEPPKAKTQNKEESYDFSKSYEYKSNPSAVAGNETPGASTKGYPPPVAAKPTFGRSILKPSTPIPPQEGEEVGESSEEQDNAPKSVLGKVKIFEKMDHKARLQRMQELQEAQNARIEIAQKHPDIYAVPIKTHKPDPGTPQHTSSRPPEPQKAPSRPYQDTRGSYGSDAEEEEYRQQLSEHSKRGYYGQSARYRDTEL
T5 sequence (Q86UR5 whole entry, the tested form may be a part): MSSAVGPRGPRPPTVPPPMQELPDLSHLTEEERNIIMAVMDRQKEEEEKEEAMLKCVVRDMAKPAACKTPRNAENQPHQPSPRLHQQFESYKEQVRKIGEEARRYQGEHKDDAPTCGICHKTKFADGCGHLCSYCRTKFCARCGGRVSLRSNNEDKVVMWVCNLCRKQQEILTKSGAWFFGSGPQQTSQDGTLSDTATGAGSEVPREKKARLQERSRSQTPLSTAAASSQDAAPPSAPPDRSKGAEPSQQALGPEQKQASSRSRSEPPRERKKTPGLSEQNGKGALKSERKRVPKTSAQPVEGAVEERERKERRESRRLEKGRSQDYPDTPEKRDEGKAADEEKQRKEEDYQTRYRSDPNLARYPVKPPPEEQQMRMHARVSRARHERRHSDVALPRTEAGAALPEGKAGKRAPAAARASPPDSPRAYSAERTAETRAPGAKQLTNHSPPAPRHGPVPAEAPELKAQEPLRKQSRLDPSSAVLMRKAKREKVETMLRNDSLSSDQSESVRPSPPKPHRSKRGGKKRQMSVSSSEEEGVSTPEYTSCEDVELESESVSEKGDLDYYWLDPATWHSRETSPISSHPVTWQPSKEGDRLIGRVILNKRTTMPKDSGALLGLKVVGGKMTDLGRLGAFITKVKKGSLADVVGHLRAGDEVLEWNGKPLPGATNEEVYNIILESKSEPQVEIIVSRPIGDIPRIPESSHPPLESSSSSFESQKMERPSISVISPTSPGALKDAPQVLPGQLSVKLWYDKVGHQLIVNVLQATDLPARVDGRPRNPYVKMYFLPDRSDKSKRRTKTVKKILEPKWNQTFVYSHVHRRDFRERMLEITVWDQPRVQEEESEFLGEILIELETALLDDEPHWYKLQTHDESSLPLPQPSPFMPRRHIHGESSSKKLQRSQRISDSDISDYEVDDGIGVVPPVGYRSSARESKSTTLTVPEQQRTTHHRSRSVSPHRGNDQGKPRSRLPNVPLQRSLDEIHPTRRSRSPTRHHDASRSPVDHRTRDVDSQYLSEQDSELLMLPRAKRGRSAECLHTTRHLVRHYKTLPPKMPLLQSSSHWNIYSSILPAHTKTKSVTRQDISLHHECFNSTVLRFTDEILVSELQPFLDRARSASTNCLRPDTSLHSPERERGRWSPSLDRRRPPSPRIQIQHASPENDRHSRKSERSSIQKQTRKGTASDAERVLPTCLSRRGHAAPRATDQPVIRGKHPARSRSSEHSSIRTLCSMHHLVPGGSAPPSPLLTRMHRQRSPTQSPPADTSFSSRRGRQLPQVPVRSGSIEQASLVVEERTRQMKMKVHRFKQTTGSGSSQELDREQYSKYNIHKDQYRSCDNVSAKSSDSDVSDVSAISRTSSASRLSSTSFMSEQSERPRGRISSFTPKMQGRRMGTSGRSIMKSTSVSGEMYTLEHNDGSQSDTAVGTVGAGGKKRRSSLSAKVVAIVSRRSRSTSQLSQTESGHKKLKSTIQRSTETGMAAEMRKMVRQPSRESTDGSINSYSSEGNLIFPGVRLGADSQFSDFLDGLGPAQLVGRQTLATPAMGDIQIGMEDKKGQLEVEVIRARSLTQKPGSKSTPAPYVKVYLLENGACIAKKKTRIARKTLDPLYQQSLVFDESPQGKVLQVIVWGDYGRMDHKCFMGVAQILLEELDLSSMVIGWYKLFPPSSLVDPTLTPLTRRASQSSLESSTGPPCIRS
T8 sequence (Q96HC4 whole entry, the tested form may be a part): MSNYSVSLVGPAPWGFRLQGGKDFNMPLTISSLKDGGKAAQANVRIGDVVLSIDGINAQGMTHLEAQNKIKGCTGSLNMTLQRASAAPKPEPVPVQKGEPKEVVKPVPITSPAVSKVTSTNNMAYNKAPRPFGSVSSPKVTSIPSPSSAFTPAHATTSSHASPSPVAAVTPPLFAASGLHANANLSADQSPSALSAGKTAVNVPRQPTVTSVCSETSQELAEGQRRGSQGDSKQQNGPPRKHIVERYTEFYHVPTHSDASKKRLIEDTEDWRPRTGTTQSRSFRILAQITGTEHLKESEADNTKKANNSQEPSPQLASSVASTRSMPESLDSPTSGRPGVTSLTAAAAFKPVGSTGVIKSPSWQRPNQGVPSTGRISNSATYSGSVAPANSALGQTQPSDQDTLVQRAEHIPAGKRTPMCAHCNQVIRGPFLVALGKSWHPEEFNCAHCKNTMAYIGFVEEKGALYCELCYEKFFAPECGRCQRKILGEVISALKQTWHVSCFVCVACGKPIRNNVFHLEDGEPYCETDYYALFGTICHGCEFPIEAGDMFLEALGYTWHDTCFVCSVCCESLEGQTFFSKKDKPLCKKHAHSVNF
T7 sequence (O00560 whole entry, the tested form may be a part): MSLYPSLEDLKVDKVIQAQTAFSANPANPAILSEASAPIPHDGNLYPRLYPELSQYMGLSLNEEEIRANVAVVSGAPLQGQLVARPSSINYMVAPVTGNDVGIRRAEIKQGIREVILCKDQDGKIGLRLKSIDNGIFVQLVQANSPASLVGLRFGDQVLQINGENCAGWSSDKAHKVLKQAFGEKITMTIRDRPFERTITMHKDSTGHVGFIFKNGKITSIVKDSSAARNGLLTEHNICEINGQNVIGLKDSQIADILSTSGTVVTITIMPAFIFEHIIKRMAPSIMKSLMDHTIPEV

In the case of CC[C@H](C)[C@H](NC(=O)[C@H](C)NC(=O)[C@H](CC(C)C)NC(=O)[C@H](Cc1c[nH]c2ccccc12)NC(=O)[C@H](Cc1c[nH]cn1)NC(=O)[C@H](CCC(N)=O)NC(=O)[C@H](CC(C)C)NC(=O)[C@H](CCC(N)=O)NC(=O)[C@H](Cc1ccccc1)NC(=O)[C@H](CCC(N)=O)NC(=O)[C@H](CCCNC(=N)N)NC(=O)[C@@H](NC(=O)[C@H](CC(=O)O)NC(=O)[C@H](CCCNC(=N)N)NC(=O)[C@H](CCC(N)=O)NC(=O)[C@H](C)NC(=O)[C@@H](NC(=O)[C@H](CC(C)C)NC(=O)[C@H](Cc1c[nH]cn1)NC(=O)[C@H](Cc1c[nH]cn1)NC(=O)CCCC[C@@H]1SC[C@@H]2NC(=O)N[C@@H]21)C(C)C)[C@@H](C)CC)C(=O)O [noradrenaline transporter] (Biotin-HHLVAQRDIRQFQLQHWLAI-OH; C-terminus assumed), the Kd [1] is reported as 500 nM.

CC[C@H](C)[C@H](NC(=O)[C@H](CC(=O)O)NC(=O)[C@H](CCC(=O)O)NC(=O)[C@H](CCCNC(=N)N)NC(=O)[C@@H](NC(=O)CCCC[C@@H]1SC[C@@H]2NC(=O)N[C@@H]21)[C@@H](C)O)C(=O)N[C@@H](Cc1ccc(O)cc1)C(=O)N[C@H](C(=O)N[C@@H](CC(N)=O)C(=O)N[C@@H](Cc1ccc(O)cc1)C(=O)N1CCC[C@H]1C(=O)N[C@H](C(=O)N[C@@H](Cc1ccccc1)C(=O)N[C@@H](CO)C(=O)N[C@@H](CCCNC(=N)N)C(=O)N[C@@H](CCCNC(=N)N)C(=O)N1CCC[C@H]1C(=O)N[C@@H](CCCCN)C(=O)N[C@H](C(=O)N[C@@H](CCCNC(=N)N)C(=O)N[C@H](C(=O)O)C(C)C)[C@@H](C)O)[C@@H](C)O)C(C)C [DNAM-1] (Biotin-TREDIYVNYPTFSRRPKTRV-OH; C-terminus assumed) was tested, and the Classification [2] was 5 (A450 nm of 4 more than 2× repeated) and the Kd [3] was 3000 nM.

CC[C@H](C)[C@H](NC(=O)[C@H](CCCCN)NC(=O)[C@@H](NC(=O)[C@H](CO)NC(=O)[C@@H]1CCCN1C(=O)[C@H](Cc1ccccc1)NC(=O)[C@@H](NC(=O)[C@@H](NC(=O)[C@H](CCCNC(=N)N)NC(=O)[C@H](CCC(=O)O)NC(=O)[C@H](CC(C)C)NC(=O)[C@H](CC(C)C)NC(=O)[C@H](CC(C)C)NC(=O)[C@@H](NC(=O)CNC(=O)[C@@H](NC(=O)CCCC[C@@H]1SC[C@@H]2NC(=O)N[C@@H]21)C(C)C)[C@@H](C)O)C(C)C)[C@@H](C)CC)C(C)C)C(=O)N[C@@H](C)C(=O)N[C@H](C(=O)N[C@@H](CC(C)C)C(=O)N[C@H](C(=O)O)C(C)C)[C@@H](C)O [Adenovirus E4 Type9] showed a Kd [4] of 100 nM.

In the case of “A2AA_HUMAN (modified) (Biotin-HDFRRAFKKILARGDRKRIV; not fully specified)”, the Classification [5] is reported as 1 (A450 nm 0-1), the Classification ([6]; PDZ SITAC-18, PDZ Domain 1) is reported as 4 (A450 nm 3-4) and the Classification ([6]; PDZ SITAC-18, PDZ Domain 2) is reported as 4 (A450 nm 3-4).

CC[C@H](C)[C@H](NC(=O)[C@H](Cc1ccc(O)cc1)NC(=O)[C@@H](NC(=O)[C@@H]1CCCN1C(=O)[C@H](CCC(N)=O)NC(=O)[C@H](CCC(=O)O)NC(=O)[C@H](CCC(N)=O)NC(=O)[C@H](C)NC(=O)[C@@H](NC(=O)[C@H](CC(C)C)NC(=O)[C@H](CC(C)C)NC(=O)[C@H](CCCNC(=N)N)NC(=O)[C@H](Cc1ccc(O)cc1)NC(=O)[C@H](CCSC)NC(=O)[C@H](C)NC(=O)[C@H](C)NC(=O)[C@@H]1CCCN1C(=O)[C@H](CCSC)NC(=O)[C@@H](NC(=O)[C@H](CCCCN)NC(=O)CCCC[C@@H]1SC[C@@H]2NC(=O)N[C@@H]21)[C@@H](C)O)[C@@H](C)O)C(C)C)C(=O)O [MINT-1] (Biotin-KTMPAAMYRLLTAQEQPVYI-OH; C-terminus assumed) showed a Kd [7] of 800 nM.

Work on CC(C)C[C@H](NC(=O)[C@H](CC(=O)O)NC(=O)[C@H](CO)NC(=O)[C@H](CCC(=O)O)NC(=O)CNC(=O)[C@H](Cc1ccc(O)cc1)NC(=O)[C@H](CC(C)C)NC(=O)[C@H](C)NC(=O)[C@H](CO)NC(=O)[C@H](CO)NC(=O)[C@H](Cc1ccccc1)NC(=O)[C@H](C)NC(=O)[C@H](C)NC(=O)[C@H](Cc1ccc(O)cc1)NC(=O)[C@H](CC(=O)O)NC(=O)[C@H](CC(C)C)NC(=O)[C@H](C)NC(=O)CNC(=O)[C@@H]1CCCN1C(=O)[C@@H](NC(=O)CCCC[C@@H]1SC[C@@H]2NC(=O)N[C@@H]21)C(C)C)C(=O)O [a-actinin 2] (Biotin-VPGALDYAAFSSALYGESDL-OH; C-terminus assumed) yielded a Kd [8] of 2000 nM.

In the case of CSCC[C@H](NC(=O)[C@H](C)NC(=O)[C@H](CCCNC(=N)N)NC(=O)CNC(=O)[C@@H](NC(=O)[C@H](Cc1c[nH]c2ccccc12)NC(=O)[C@H](CCCNC(=N)N)NC(=O)CNC(=O)CCCC[C@@H]1SC[C@@H]2NC(=O)N[C@@H]21)[C@@H](C)O)C(=O)N[C@@H](CO)C(=O)N[C@@H](C)C(=O)N[C@@H](Cc1c[nH]c2ccccc12)C(=O)N[C@@H](CCCCN)C(=O)N1CCC[C@H]1C(=O)N[C@H](C(=O)N[C@@H](CCCNC(=N)N)C(=O)N[C@@H](CCCNC(=N)N)C(=O)N[C@@H](CCC(=O)O)C(=O)N[C@H](C(=O)N[C@@H](CCC(=O)O)C(=O)N[C@H](C(=O)O)C(C)C)[C@@H](C)O)[C@@H](C)O [HPV E6 #35 (modified)] (Biotin-GRWTGRAMSAWKPTRRETEV-OH; C-terminus assumed), the Classification [9] is reported as 1 (A450 nm 0-1) and the Kd [10] is reported as 1000 nM.
